Experimental findings from US9814720B2, “Compositions and methods of inhibiting IL-17 expression of neutrophils” (priority 2014, dated 2017) are described below.

Each structure is given as a SMILES string.

Experiment [1] relates to p-STAT3. Put plainly: STAT3 phosphorylation in IL-6/23-stimulated murine bone marrow neutrophils (flow cytometry). To be noted: inhibitor 20 μM, 1 h IL-6+IL-23, FIG. 4C. It counts as cell-based, C57BL/6 mice. The text has this: Total bone marrow-derived cells were isolated from mouse femurs and tibias by flushing with RPMI and an 18-gauge needle. Erythrocytes were lysed with 1× lysis buffer (eBioscience), and bone marrow cells were separated on a Percoll (Fisher) gradient by density centrifugation (52%, 69%, and 78%). Cells at the 69-78% interface were harvested, and neutrophil purity (>98%) confirmed by flow cytometry and Wright-Giemsa staining. Murine or human neutrophils were suspended at a density of 10^6 cells/ml and incubated with […] of recombinant mouse or human IL-6 and 2 μg/ml IL-23 in RPMI, and the cells were maintained for 1-3 h at 37° C. in 5% CO2. Various inhibitors were used for assessing STAT3 activation. […] For the determination of RORγt-dependent signaling, SR1001 (20 μM; Sigma) was used, which inhibits RORγt binding to the IL-17 promoter site. All inhibitors were added to neutrophils 2 h prior to recombinant IL-6 and IL-23 stimulation. Corneas were dissected and incubated for 1 h at 37° C. in collaganese (80 U/ml) (C0130; Sigma-Aldrich), and washed in FACS buffer (PBS+1% FBS+0.5% Sodium azide). Ten corneas were pooled and analyzed by intracellular flow cytometry. Conversely, bone marrow cells or neutrophils were collected as described above and washed in FACS buffer. […] Cells were analyzed using a C6 Accuri flow cytometer (BD). […]

Experiment [2] relates to p-STAT3. Put plainly: Western blot of total cell lysate of IL-6/23-stimulated human neutrophils. The note with it: IL-6/23 1 h, FIG. 5A. Format: cell-based. As to the method: Neutrophils were isolated from peripheral blood of healthy donors. Peripheral blood was incubated in 3% Dextran, and neutrophils isolated by Ficoll gradient centrifugation (Fisher Scientific), with neutrophil purity determined by staining with Wright-Giemsa.
(§1) Murine or human neutrophils were suspended at a density of 10^6 cells/ml and incubated with […] of recombinant mouse or human IL-6 and 2 μg/ml IL-23 in RPMI, and the cells were maintained for 1-3 h at 37° C. in 5% CO2. Various inhibitors were used for assessing STAT3 activation. For STAT3, neutrophils were treated with either the STAT3-SH2 inhibitor, Stattic (20 μM) obtained from Tocris, or the JAK-1, 2 inhibitor, INC424, (aka Ruxolitinib; 20 μM (Selleck BioChem)). For the determination of RORγt-dependent signaling, SR1001 (20 μM; Sigma) was used, which inhibits RORγt binding to the IL-17 promoter site. All inhibitors were added to neutrophils 2 h prior to recombinant IL-6 and IL-23 stimulation.
Neutrophils collected from primed or naïve C57BL/6 mice or unstimulated murine or human neutrophils were incubated with recombinant IL-6 and IL-23 for 60 min. After this time, cells were washed in PBS and lysed in ice-cold 1× lysis buffer (Cell Signaling Technology, Beverly, Mass.). Total protein was quantified using the BCA method, denatured with 2× Laemmli buffer (Sigma) and heated to 95° C. for 5 minutes. Nuclear extracts of the cells were prepared with the Pierce nuclear extract kit per the manufacturer's directions (Pierce). Ten μg of total protein was analyzed on a 12% SDS polyacrylamide gel, and transferred to nitrocellulose. Blots were probed with the following primary antibodies: Total STAT3 (R&D), p-STAT3 (R&D), RORγt (eBioscience), TATA box binding protein (TBP (Abcam)), and β-actin (Cell Signaling Technology). HRP-conjugated secondary antibodies were used (Santa Cruz Biotechnologies), and western blots developed with Supersignal West Femto Maximum Sensitivity Substrate (Pierce).

The next experiment deals with IL-17RC. Put plainly: IL-17RC gene expression by qPCR in IL-6/23-stimulated murine neutrophils. It counts as cell-based. To be noted: IL-6/23 1 h, FIG. 6A.
From the text: Total bone marrow-derived cells were isolated from mouse femurs and tibias by flushing with RPMI and an 18-gauge needle. Erythrocytes were lysed with 1× lysis buffer (eBioscience), and bone marrow cells were separated on a Percoll (Fisher) gradient by density centrifugation (52%, 69%, and 78%). Cells at the 69-78% interface were harvested, and neutrophil purity (>98%) confirmed by flow cytometry and Wright-Giemsa staining.
as §1
Neutrophil and corneal cell RNA was extracted using the RNeasy mini kit according to the manufacturer's directions (Qiagen, Valencia, Calif.). The quality of RNA was checked by spectrophotometry, and only samples with a 260/280 ratio of 2.0 were used to generate cDNA. The SuperScript First Strand synthesis system (Invitrogen) was used to generate cDNA according to the manufacturer's directions.
The SYBR green system (Applied Biosystems, Carlsbad, Calif.) was utilized for quantitative PCR (qPCR) using ABI Biosystems. PCR products were then run on a 1% agarose gel, and visualized using ethidium bromide. PCR products were compared to Actb (encoding the β-actin gene) or GAPDH as the controls for gel loading.

For the molecule `O=[N+]([O-])c1ccc2c(c1)S(=O)(=O)C=C2` [Stattic], the “p-STAT3 in IL-6/23 stimulated neutrophils” value with p-STAT3 [1] is “completely inhibited”. In the experiment on p-STAT3 [2], the “RORγt expression (western blot)” value was “not altered” and the “total STAT3 expression (western blot)” value was “not altered”. Moreover, in the experiment on p-STAT3 [2] (inhibitor 20 μM), the “p-STAT3 (western blot)” value is “inhibited”. In addition, the IL-17RC expression entry in the experiment with IL-17RC is “did not inhibit”.
